Measurements as given in patent publication US11542240B2, “STK19 inhibitors for treatment of cancer” (TRUSTEES OF BOSTON UNIVERSITY, priority 2018, dated 2023).
Like-named read-outs stand apart in the source and are kept apart here.

Key:
Experiment in all cases: biochemical
Format in all cases: binding
[1] = target: panel of 468 diverse kinases (Homo sapiens, UniProt P78362); settings: SRPK2; 1000 nM; read-out: Percent Control
[2] = target: panel of 468 diverse kinases (Homo sapiens, UniProt P10721, V559D/V654A); settings: KIT(V559D,V654A); 1000 nM; read-out: Percent Control
[3] = target: panel of 468 diverse kinases (Homo sapiens, UniProt Q8NE63); settings: HIPK4; 1000 nM; read-out: Percent Control
[4] = target: panel of 468 diverse kinases (Homo sapiens, UniProt Q9Y6E0); settings: MST3; 1000 nM; read-out: Percent Control
[5] = target: panel of 468 diverse kinases (Homo sapiens, UniProt Q59H18); settings: TNNI3K; 1000 nM; read-out: Percent Control
[6] = target: panel of 468 diverse kinases (Homo sapiens, UniProt P54760); settings: EPHB4; 1000 nM; read-out: Percent Control
[7] = target: panel of 468 diverse kinases (Homo sapiens, UniProt Q96PY6); settings: NEK1; 1000 nM; read-out: Percent Control
[8] = target: panel of 468 diverse kinases (Homo sapiens, UniProt P41743); settings: PRKCI; 1000 nM; read-out: Percent Control
[9] = target: panel of 468 diverse kinases (Homo sapiens, UniProt Q9H1R3); settings: MYLK2; 1000 nM; read-out: Percent Control
[10] = target: panel of 468 diverse kinases (Homo sapiens, UniProt Q96J92); settings: WNK4; 1000 nM; read-out: Percent Control
[11] = target: panel of 468 diverse kinases (Homo sapiens, UniProt Q16288); settings: TRKC; 1000 nM; read-out: Percent Control
[12] = target: panel of 468 diverse kinases (Homo sapiens, UniProt Q8NI60); settings: ADCK3; 1000 nM; read-out: Percent Control
[13] = target: panel of 468 diverse kinases (Homo sapiens, UniProt P15735); settings: PHKG2; 1000 nM; read-out: Percent Control
[14] = target: panel of 468 diverse kinases (Homo sapiens, UniProt P00533, DEL752-759); settings: EGFR(S752-I759del); 1000 nM; read-out: Percent Control
[15] = target: panel of 468 diverse kinases (Homo sapiens, UniProt P45983); settings: JNK1; 1000 nM; read-out: Percent Control
[16] = target: panel of 468 diverse kinases (Homo sapiens, UniProt P49840); settings: GSK3A; 1000 nM; read-out: Percent Control
[17] = target: panel of 468 diverse kinases (Homo sapiens, UniProt P08069); settings: IGF1R; 1000 nM; read-out: Percent Control
[18] = target: panel of 468 diverse kinases (Homo sapiens, UniProt Q9NRP7); settings: STK36; 1000 nM; read-out: Percent Control
[19] = target: panel of 468 diverse kinases (Homo sapiens, UniProt Q9BWU1); settings: CDK11; 1000 nM; read-out: Percent Control
[20] = target: panel of 468 diverse kinases (Homo sapiens, UniProt P54646); settings: AMPK-alpha2; 1000 nM; read-out: Percent Control
[21] = target: panel of 468 diverse kinases (Homo sapiens, UniProt P30291); settings: WEE1; 1000 nM; read-out: Percent Control
[22] = target: panel of 468 diverse kinases (Homo sapiens, UniProt P20794); settings: MAK; 1000 nM; read-out: Percent Control
[23] = target: panel of 468 diverse kinases (Homo sapiens, UniProt Q96GD4); settings: AURKB; 1000 nM; read-out: Percent Control
[24] = target: panel of 468 diverse kinases (Homo sapiens, UniProt Q15418); settings: 1000 nM, read-out: Percent Control
[25] = target: panel of 468 diverse kinases (Homo sapiens, UniProt Q9Y243); settings: AKT3; 1000 nM; read-out: Percent Control
[26] = target: panel of 468 diverse kinases (Homo sapiens, UniProt O96017); settings: CHEK2; 1000 nM; read-out: Percent Control
[27] = target: panel of 468 diverse kinases (Homo sapiens, UniProt Q15139); settings: PRKD1; 1000 nM; read-out: Percent Control
[28] = target: panel of 468 diverse kinases (Homo sapiens, UniProt P07947); settings: YES; 1000 nM; read-out: Percent Control
[29] = target: panel of 468 diverse kinases (Homo sapiens, UniProt O60331); settings: PIP5K1C; 1000 nM; read-out: Percent Control
[30] = target: panel of 468 diverse kinases (Homo sapiens, UniProt Q13882); settings: BRK; 1000 nM; read-out: Percent Control
[31] = target: panel of 468 diverse kinases (Homo sapiens, UniProt O00506); settings: YSK1; 1000 nM; read-out: Percent Control

Chain of panel of 468 diverse kinases (Homo sapiens, UniProt Q16288) (Q16288 32-839 limits assumed): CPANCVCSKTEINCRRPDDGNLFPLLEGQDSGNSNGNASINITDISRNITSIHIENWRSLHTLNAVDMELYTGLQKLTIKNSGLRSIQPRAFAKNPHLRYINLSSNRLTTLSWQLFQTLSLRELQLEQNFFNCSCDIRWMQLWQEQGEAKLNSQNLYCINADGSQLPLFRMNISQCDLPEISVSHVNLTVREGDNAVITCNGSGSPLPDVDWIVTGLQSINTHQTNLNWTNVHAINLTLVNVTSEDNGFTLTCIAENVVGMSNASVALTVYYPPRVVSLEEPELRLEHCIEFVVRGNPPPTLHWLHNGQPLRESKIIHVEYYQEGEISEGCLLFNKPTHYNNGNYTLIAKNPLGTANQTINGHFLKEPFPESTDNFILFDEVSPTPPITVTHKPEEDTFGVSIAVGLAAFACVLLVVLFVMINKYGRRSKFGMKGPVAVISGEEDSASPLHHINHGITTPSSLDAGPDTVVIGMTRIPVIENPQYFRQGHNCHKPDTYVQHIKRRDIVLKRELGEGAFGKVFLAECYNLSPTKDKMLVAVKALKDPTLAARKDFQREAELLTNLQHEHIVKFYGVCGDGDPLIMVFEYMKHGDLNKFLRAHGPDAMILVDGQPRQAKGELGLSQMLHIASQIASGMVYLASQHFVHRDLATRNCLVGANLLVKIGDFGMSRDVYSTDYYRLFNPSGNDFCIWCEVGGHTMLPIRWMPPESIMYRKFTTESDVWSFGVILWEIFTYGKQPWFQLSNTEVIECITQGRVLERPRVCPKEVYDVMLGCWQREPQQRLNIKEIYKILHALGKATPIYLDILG
Chain of panel of 468 diverse kinases (Homo sapiens, UniProt P10721, V559D/V654A) (P10721 26-976 V559D/V654A limits assumed): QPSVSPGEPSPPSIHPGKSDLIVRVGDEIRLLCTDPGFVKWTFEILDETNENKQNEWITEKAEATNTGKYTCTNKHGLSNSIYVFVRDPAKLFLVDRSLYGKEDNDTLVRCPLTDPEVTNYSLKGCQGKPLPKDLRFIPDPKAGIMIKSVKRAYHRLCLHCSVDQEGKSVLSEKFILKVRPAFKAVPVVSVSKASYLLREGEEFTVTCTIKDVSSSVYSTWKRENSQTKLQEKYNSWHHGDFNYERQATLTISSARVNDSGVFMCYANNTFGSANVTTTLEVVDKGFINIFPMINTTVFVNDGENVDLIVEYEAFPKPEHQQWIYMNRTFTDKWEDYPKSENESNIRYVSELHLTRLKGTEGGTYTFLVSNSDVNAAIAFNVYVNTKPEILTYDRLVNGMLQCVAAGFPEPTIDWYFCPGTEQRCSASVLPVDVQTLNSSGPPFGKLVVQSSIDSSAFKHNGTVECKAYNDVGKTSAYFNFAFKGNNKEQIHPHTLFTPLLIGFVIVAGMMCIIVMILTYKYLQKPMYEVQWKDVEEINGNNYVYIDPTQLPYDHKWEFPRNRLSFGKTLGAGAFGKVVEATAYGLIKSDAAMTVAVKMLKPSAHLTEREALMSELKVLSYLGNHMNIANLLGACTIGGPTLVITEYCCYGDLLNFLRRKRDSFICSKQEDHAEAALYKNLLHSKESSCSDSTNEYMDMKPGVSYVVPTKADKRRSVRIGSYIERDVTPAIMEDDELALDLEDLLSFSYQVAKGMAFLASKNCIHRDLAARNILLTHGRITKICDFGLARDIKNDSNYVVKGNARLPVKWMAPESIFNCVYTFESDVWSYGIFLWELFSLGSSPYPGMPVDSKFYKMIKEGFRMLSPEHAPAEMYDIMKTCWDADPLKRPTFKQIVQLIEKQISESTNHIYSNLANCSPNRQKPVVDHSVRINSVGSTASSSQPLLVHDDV
Chain of panel of 468 diverse kinases (Homo sapiens, UniProt P49840) (P49840 2-483 limits assumed): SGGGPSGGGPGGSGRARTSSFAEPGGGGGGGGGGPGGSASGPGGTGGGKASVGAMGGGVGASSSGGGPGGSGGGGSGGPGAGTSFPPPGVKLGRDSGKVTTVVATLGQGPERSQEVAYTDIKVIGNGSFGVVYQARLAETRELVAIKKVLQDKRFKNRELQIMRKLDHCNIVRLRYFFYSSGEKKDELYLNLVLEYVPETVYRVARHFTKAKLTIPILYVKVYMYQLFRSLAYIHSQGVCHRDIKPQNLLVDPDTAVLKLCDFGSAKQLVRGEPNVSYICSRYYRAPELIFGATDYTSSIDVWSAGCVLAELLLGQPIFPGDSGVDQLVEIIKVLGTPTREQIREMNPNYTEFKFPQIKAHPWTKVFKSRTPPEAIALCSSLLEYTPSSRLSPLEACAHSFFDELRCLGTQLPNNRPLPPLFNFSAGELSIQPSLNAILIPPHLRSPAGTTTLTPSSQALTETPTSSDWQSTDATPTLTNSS
Chain of panel of 468 diverse kinases (Homo sapiens, UniProt Q9Y243) (Q9Y243 2-479 limits assumed): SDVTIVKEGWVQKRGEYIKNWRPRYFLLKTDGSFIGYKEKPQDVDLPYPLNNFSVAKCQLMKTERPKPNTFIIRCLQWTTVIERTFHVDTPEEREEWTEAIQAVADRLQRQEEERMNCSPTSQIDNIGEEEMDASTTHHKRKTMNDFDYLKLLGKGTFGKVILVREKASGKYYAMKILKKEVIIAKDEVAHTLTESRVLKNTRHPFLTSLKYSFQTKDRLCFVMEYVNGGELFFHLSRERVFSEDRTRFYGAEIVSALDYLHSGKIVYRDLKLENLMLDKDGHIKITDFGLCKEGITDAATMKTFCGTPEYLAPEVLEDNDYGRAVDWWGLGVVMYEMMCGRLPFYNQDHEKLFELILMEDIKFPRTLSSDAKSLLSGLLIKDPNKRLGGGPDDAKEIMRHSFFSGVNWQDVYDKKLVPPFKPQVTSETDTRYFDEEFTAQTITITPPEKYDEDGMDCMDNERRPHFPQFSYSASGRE
Chain of panel of 468 diverse kinases (Homo sapiens, UniProt Q8NI60) (Q8NI60 163-647 limits assumed): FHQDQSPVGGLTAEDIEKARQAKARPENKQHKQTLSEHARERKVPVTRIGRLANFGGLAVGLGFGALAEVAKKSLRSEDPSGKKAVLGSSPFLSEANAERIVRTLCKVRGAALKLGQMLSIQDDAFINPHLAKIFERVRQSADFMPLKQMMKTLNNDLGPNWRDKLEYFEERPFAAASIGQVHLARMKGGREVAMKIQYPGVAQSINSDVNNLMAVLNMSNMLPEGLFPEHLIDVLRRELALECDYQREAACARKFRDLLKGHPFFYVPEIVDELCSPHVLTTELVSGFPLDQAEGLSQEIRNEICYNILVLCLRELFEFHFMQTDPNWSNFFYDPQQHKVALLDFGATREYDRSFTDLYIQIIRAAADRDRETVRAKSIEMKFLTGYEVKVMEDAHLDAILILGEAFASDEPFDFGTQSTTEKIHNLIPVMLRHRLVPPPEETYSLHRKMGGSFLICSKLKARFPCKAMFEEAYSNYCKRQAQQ
Chain of panel of 468 diverse kinases (Homo sapiens, UniProt P00533, DEL752-759) (P00533 with tags, fused parts or gaps DEL752-759 limits assumed): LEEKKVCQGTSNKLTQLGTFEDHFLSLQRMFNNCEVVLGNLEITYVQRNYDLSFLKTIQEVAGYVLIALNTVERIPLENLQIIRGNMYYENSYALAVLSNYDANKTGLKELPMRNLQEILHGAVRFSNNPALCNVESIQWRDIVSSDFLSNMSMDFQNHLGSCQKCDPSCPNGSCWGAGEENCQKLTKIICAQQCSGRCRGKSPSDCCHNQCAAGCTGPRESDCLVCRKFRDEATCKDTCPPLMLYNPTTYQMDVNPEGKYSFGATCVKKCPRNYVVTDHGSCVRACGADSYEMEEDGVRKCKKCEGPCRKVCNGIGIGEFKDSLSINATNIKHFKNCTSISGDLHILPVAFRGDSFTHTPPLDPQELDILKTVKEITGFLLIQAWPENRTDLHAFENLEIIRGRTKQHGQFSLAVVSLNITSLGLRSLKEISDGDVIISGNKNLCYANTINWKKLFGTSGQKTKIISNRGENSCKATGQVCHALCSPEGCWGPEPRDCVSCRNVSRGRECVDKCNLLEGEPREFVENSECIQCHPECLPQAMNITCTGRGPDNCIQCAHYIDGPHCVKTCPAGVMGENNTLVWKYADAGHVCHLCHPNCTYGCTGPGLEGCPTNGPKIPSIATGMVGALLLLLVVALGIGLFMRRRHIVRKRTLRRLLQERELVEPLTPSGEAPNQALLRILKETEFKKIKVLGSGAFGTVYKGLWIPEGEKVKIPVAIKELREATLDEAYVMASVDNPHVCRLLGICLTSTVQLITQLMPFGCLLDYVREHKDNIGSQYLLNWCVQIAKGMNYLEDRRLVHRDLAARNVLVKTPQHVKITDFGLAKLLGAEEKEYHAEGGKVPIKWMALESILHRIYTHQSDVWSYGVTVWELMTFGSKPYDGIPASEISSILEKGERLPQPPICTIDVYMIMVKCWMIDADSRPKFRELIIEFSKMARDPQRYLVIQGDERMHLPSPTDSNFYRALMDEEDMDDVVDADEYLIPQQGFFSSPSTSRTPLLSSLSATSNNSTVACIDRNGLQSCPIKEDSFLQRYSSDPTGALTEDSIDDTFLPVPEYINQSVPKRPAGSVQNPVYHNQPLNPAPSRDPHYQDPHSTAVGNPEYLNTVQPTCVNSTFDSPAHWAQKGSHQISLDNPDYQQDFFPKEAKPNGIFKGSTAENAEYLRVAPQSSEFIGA
Chain of panel of 468 diverse kinases (Homo sapiens, UniProt P07947) (P07947 2-543 limits assumed): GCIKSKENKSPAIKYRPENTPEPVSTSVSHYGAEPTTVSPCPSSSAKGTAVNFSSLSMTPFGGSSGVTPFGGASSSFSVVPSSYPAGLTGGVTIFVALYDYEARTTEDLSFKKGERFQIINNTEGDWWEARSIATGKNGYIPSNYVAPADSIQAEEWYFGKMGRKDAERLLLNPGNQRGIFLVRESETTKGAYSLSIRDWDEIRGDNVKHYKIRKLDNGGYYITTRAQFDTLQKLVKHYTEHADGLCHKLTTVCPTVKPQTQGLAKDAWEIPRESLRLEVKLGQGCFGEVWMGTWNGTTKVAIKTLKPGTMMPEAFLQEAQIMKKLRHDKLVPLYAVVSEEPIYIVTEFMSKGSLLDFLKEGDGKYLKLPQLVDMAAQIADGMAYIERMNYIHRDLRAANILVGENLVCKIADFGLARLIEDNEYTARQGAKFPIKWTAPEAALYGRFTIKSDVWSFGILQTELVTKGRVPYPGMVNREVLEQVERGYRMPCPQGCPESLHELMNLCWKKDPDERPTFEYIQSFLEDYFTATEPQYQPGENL

Work on COc1cc2nc(NC3CC3)nc(NC3CCN(C(C)C)CC3)c2cc1OC [Formula IV] yielded a remaining activity at 1 µM [1] of 80%, a remaining activity at 1 µM [2] of 76% and a remaining activity at 1 µM [3] of 91%. The remaining activity at 1 µM [4] was 96%, the remaining activity at 1 µM [5] was 96% and the remaining activity at 1 µM [6] was 100%. It also gave a remaining activity at 1 µM [7] of 100%, a remaining activity at 1 µM [8] of 71% and a remaining activity at 1 µM [9] of 96%. The remaining activity at 1 µM [10] was 70%, the remaining activity at 1 µM [11] was 53% and the remaining activity at 1 µM [12] was 100%. It also gave a remaining activity at 1 µM [13] of 83%, a remaining activity at 1 µM [14] of 100% and a remaining activity at 1 µM [15] of 52%. For the same compound, the remaining activity at 1 µM [16] was 95%, the remaining activity at 1 µM [17] was 97% and the remaining activity at 1 µM [18] was 77%. For the same compound, the remaining activity at 1 µM [19] was 82%, the remaining activity at 1 µM [20] was 93% and the remaining activity at 1 µM [21] was 100%. It also gave a remaining activity at 1 µM [22] of 88%, a remaining activity at 1 µM [23] of 84% and a remaining activity at 1 µM ([24]; RSK1(Kin.Dom.1-N-terminal)) of 93%. It also gave a remaining activity at 1 µM ([24]; RSK1(Kin.Dom.2-C-terminal)) of 98%, a remaining activity at 1 µM [25] of 91% and a remaining activity at 1 µM [26] of 100%. For the same compound, the remaining activity at 1 µM [27] was 100%, the remaining activity at 1 µM [28] was 100% and the remaining activity at 1 µM [29] was 100%. The remaining activity at 1 µM [30] was 100% and the remaining activity at 1 µM [31] was 98%.
